Results from US7576094B2, “Spiro derivatives as lipoxygenase inhibitors” (Eli Lilly and Company, priority 2004, dated 2009).

Assays:
[1] = tested on: release of the leukotriene LTB4 from a neutrophil cell line (MPRO cell line); test: LTB4-Cell Assay; assay type: cell-based; details: Mus musculus, 1 h, read-out: inhibition of LTB4 with an EC50
Description: • This procedure was used for measuring the release of the leukotriene LTB4 from a neutrophil cell line using a competitive ELISA technique. Materials and Equipments Materials for Cell Preparation and Experiment • MPRO cell line (ATCC, Catalog # CRL-11422) • Calcium ionophore (A23187) (Sigma, Catalog # C7522) • Nordihydroguaiaretic acid (NDGA) (BioMol ,Catalog # EI101-0001) • Retinoic Acid (all-trans) (ATRA) (Sigma, Catalog # 95152) • Sterile, tissue-culture treated 96-well plates (Corning, Catalog # 3614) Materials for LTB4 ELISA • Precoated (Mouse Anti-Rabbit IgG) EIA 96 Well Strip Plates (Cayman, Catalog # 400004) • Leukotriene B4 AChE Tracer (Cayman Catalog # 420110) • Leukotriene B4 EIA Antiserum (Cayman Catalog # 420112) • Ellman's Reagent (Cayman Catalog # 400050) • EIA Buffer Concentrate (10×) (Cayman Catalog # 400060) • Wash Buffer Concentrate (400×) (Cayman Catalog # 400062) • Plastic plate covers (Cayman Catalog # 400012) Procedure
A mouse promyelocytic cell line (MPRO) was used in this assay. These cells are committed immature neutrophils that can be differentiated into mature neutrophils by treatment with 10 μM all-trans retinoic acid for 72 hours.
Following 72 hours of differentiation, cells were stimulated with 1 μM of a calcium ionophore (A23187) in the presence or absence of test compound or vehicle for 1 hour at 37° C. After this time, supernatant was removed from the cells and the LTB4 levels were determined following manufacturer's instructions, using a Leukotriene B4 EIA kit from Cayman (Cat # 5201 11). The negative controls were media samples from differentiated but un-stimulated cells. The compounds were screened at 5 concentrations in quadruplicate starting at 10 μM.

[2] = tested on: LTB4 production in human whole blood; test: Inhibition of LTB4 Production in Blood; assay type: cell-based; details: 1 h, 20 μM A23187, 60 minutes at 37° C., LTB4 in plasma by ELISA, read-out: protection against LTB4 at an EC50
Description: • Human whole blood (Na citrate) (Stanford Blood Center) • A23187, (Sigma, Cat# C-7522) • Leukotriene B4 EIA reagents (Cayman Chemical, Cat # 520111) • BWA4C (Sigma, Cat # B7559) Procedure Preparation of A23187:
A23187 was prepared as a 10 mM stock solution in DMSO (aliquots can be stored at −20° C.). On the day of the assay the stock solution was diluted as follows: 70 μL 10 mM stock added to 1.6 mL plasma to give a working concentration of 0.42 mM.
From a 30 mM stock solution in DMSO, test articles were diluted to a working concentration of 600 μM in PBS (i.e. 10 μL stock solution+490 μL PBS). This is the highest concentration (gives a final testing concentration of 30 μM). From this 600 μM solution test articles were serially diluted 1:3 in PBS to give a dose-response curve. 10 μL of each concentration of test article was then added to 4 wells of a 96-well plate (i.e. testing in quadruplicate). A positive control compound, BWA4C was used in every assay.
Human whole blood was added to the plates containing compounds (190 μL per well) and mixed well. The blood was incubated with compound at 37° C. for 15 minutes. Following this incubation, 10 μL of 0.42 mM A23187 was added to each well except the negative control wells to give a final calcium ionophore concentration of 20 μM. The plates were then incubated at 37° C. for 60 minutes. After the incubation period, plates were centrifuged for 15 min at 2000 g at 4° C. in sealed microplate buckets. Plasma was then removed for quantitation of LTB4 levels by ELISA.
LTB4 levels in the plasma were determined using a commercially available ELISA kit from Cayman Chemicals. The ELISA was run according to the manufacturer's instructions. The LTB4 levels in the vehicle control sample were then compared to those in which the test article had been added. From this a percent inhibition of LTB4 production by each concentration of test article was calculated and the IC50 was determined.

[3] = molecular target: T1, human recombinant 5-Lipoxygenase (Homo sapiens, UniProt P09917); test: 5-Lipoxygenase Enzyme Assay; assay type: biochemical; details: 70 μM arachidonic acid, 10 minute incubation at room temperature, FOX reagent, absorbance at 620 nm; read-out: inhibition of 5-Lipoxygenase with an IC50
T1 sequence (P09917 1-674): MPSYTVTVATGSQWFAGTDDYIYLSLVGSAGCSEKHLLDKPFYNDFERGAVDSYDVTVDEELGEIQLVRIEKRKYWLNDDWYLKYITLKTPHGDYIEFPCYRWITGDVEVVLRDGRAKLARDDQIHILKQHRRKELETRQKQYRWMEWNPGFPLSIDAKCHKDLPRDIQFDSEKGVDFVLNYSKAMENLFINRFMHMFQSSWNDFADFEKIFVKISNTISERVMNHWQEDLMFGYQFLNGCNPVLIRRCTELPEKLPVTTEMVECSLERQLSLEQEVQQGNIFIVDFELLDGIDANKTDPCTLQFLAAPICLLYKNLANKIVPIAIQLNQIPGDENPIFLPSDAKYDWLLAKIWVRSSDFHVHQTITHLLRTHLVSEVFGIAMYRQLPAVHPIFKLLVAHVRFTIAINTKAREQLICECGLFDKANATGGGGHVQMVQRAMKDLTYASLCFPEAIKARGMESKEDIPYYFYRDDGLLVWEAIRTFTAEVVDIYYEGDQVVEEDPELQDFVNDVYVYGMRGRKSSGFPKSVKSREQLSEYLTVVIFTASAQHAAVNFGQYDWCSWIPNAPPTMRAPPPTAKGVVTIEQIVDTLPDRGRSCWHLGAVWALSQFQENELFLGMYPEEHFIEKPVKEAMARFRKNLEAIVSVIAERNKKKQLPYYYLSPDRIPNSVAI
Description: This procedure was used for measuring the enzymatic activity of human recombinant 5-Lipoxygenase using a colorimetric method based on the ferric oxidation of xylenol orange.
• 96 well flat bottom microfilter plates (VWR, Catalog # 62402-933 9295) • Lipoxygenase screening assay buffer (Cayman, Catalog # 760710) • Human recombinant 5-Lipoxygenase (Cayman, Catalog # 60402) • Arachidonic Acid (Sigma, Catalog # A3555) • Xylenol orange tetra sodium salt (Aldrich, Catalog # 227854) • Iron (II) sulfate heptahydrate (Sigma, Catalog # F7002) • Sulfuric acid (95-98%) [18 M] • Methanol Procedure
Human recombinant 5-Lipoxygenase (Cayman Cat # 60402) was used in this assay. The test compound and/or vehicle was added to 0.5 μL 5-Lipoxygenase in 50 mM Tris-HCl buffer, pH 7.4. The reaction was initiated by addition of 70 μM arachidonic acid in Tris-HCl buffer, pH 7.4, and terminated after a 10 minute incubation at room temperature by addition of FOX reagent (25 mM sulfuric acid, 100 μM xylenol orange, 100 μM iron (II) sulfate, methanol:water 9:1). The yellow color of acidified xylenol orange was converted to a blue color by the lipid hydroperoxide-mediated oxidation of Fe^2+ ions and the interaction of the resulting Fe^3+ ions with the dye. The complex was allowed to form during a 1 hour incubation at room temperature with shaking. Absorbance of the Fe^3+ complex was then measured at […] using a spectrophotometer.
Negative controls contained enzyme during the incubation step but substrate was not added until after the FOX reagent. Compounds were screened at 5 concentrations in triplicate starting at 10 μM

Structure (SMILES) | EC50 [1] [µM] | EC50 [2] [µM] | IC50 [3] [µM]
Cc1c(O)cc2c(c1C)N(CCCN1C(=O)c3ccccc3C1=O)CC1(CC1)C2 [2-(3-(6′-hydroxy-7′,8′-dimethyl-2′,4′-dihydro-1′H-spiro[cyclopropane-1,3′-quinoline]-1′-yl)propyl)isoindoline-1,3-dione] | < 5 | – | –
Cc1c(C)c2c(c(C)c1OCc1ccc3ccccc3n1)CCC1(CCC1)O2 [2-{[(5,7,8-trimethyl-3,4-dihydrospiro[chromene-2,1′-cyclobutan]-6-yl)oxy]methyl}quinoline] | < 5 | – | –
CC1=Cc2c(C)c(O)c(C)c(C)c2OC12CCC2 [3,5,7,8-tetramethylspiro[chromene-2,1′-cyclobutan]-6-ol] | < 5 | < 10 | –
Cc1c(C)c2c(c(C)c1O)C=C(C(C)O)C1(CCC1)O2 (stereo not drawn) [3-(1-hydroxyethyl)-5,7,8-trimethylspiro[chromene-2,1′-cyclobutan]-6-ol] | < 5 | < 10 | –
Cc1c(C)c2c(c(C)c1O)CC(CO)C1(CCC1)O2 (stereo not drawn) [3-(hydroxymethyl)-5,7,8-trimethyl-3,4-dihydrospiro[chromene-2,1′-cyclobutan]-6-ol] | < 5 | < 10 | –
CONCC1=Cc2c(cc(C)c(OC(=O)C(C)(C)C)c2C)OC12CCC2 [3-[(methoxyamino)methyl]-5,7-dimethylspiro[chromene-2,1′-cyclobutan]-6-yl pivalate] | < 5 | – | –
CCONC1CC2(CCC2)Oc2cc(C)c(O)c(C)c21 (stereo not drawn) [4-(ethoxyamino)-5,7-dimethyl-3,4-dihydrospiro[chromene-2,1′-cyclobutan]-6-ol] | < 5 | – | < 0.3
CCCCCCNC1c2c(C)c(O)c(C)c(C)c2OCC12CCC2 (stereo not drawn) [4-(hexylamino)-5,7,8-trimethylspiro[chroman-3,1′-cyclobutan]-6-ol] | < 5 | – | < 0.3
CON(C)C1CC2(CCC2)Oc2c(C)c(C)c(O)c(C)c21 (stereo not drawn) [4-[methoxy(methyl)amino]-5,7,8-trimethyl-3,4-dihydrospiro[chromene-2,1′-cyclobutan]-6-ol] | < 5 | – | –
Cc1c(C)c2c(c(C)c1O)C(O)CC1(CCC1)O2 (stereo not drawn) [5,7,8-trimethyl-3,4-dihydrospiro[chromene-2,1′-cyclobutane]-4,6-diol] | < 5 | – | –
CCO/N=C1\CC2(CCC2)Oc2cc(CC)c(O)c(CC)c21 [5,7-diethyl-6-hydroxyspiro[chromene-2,1′-cyclobutan]-4(3H)-one O-ethyloxime] | < 5 | – | < 0.3
C=Cc1c(C)c(O)c(C)c2c1OC1(CCC1)CC2 [5,7-dimethyl-8-vinyl-3,4-dihydrospiro[chromene-2,1′-cyclobutan]-6-ol] | < 5 | – | < 0.3
Cc1cc(O)c(Cl)c2c1OC1(CCC1)CC2 [5-chloro-8-methyl-3,4-dihydrospiro[chromene-2,1′-cyclobutan]-6-ol] | < 5 | – | –
CCO/N=C1\CC2(CCC2)Oc2c(C)c(C)c(O)c(CC)c21 [5-ethyl-6-hydroxy-7,8-dimethylspiro[chromene-2,1′-cyclobutan]-4(3H)-one O-ethyloxime] | < 5 | – | < 0.3
CCc1c(O)c(C)c(C)c2c1/C(=N/OC)CC1(CCC1)O2 [5-ethyl-6-hydroxy-7,8-dimethylspiro[chromene-2,1′-cyclobutan]-4(3H)-one O-methyloxime] | < 5 | – | < 0.3
Cc1cc(O)c(C(C)C)c2c1OC1(CCC1)CC2 [5-isopropyl-8-methyl-3,4-dihydrospiro[chromene-2,1′-cyclobutan]-6-ol] | < 5 | – | –
Cc1c(C)c2c(c(C)c1O)C(C#N)=CC1(CCC1)O2 [6-hydroxy-5,7,8-trimethylspiro[chromene-2,1′-cyclobutane]-4-carbonitrile] | < 5 | – | –
Cc1c(C)c2c(c(C)c1O)C(=O)CC1(CCC1)S2 [6′-hydroxy-5′,7′,8′-trimethylspiro[cyclobutane-1,2′-thiochromen]-4′(3′H)-one] | < 5 | – | < 0.3
Cc1c(OC(=O)CN(C)C)cc2c(c1C)OC1(CCC1)CC2 [7,8-dimethyl-3,4-dihydrospiro[chromene-2,1′-cyclobutan]-6-yl (dimethylamino)acetate] | < 5 | – | –
Cc1c2c(c(C)c(Cl)c1OC(=O)CN(C)C)OC1(CCC1)CC2 [7-chloro-5,8-dimethyl-3,4-dihydrospiro[chromene-2,1′-cyclobutan]-6-yl (dimethylamino)acetate] | < 5 | – | < 0.3
Cc1c(O)c(C(C)(C)C)cc2c1C(O)CC1(CCC1)O2 (stereo not drawn) [7-tert-butyl-5-methylspiro[chroman-2,1′-cyclobutane]-4,6-diol] | < 5 | – | –
Cc1cc2c(c(C)c1O)C(NS(=O)(=O)c1ccccc1)CC1(CCC1)O2 (stereo not drawn) [N-(6-hydroxy-5,7-dimethyl-3,4-dihydrospiro[chromene-2,1′-cyclobutan]-4-yl)benzenesulfonamide] | < 5 | – | < 0.3
COC(=O)C1CC(c2c(C)c(O)c(C)c3c2OC2(CCC2)CC3)=NO1 (stereo not drawn) [methyl 3-(6-hydroxy-5,7-dimethyl-3,4-dihydrospiro[chromene-2,1′-cyclobutan]-8-yl)-4,5-dihydroisoxazole-5-carboxylate] | < 5 | – | < 0.3
